# Results taken from patent US11066396B2 (priority 2016, dated 2021).
# Experiments:
# [1] = molecular target: HDAC8 (Homo sapiens (Human), UniProt Q9BY41); conditions: read-out: HDAC8 IC50
# [2] = molecular target: HDAC1 (Homo sapiens (Human), UniProt Q13547); conditions: read-out: HDAC1 IC50
# Sequence of HDAC1 (Q13547 whole entry): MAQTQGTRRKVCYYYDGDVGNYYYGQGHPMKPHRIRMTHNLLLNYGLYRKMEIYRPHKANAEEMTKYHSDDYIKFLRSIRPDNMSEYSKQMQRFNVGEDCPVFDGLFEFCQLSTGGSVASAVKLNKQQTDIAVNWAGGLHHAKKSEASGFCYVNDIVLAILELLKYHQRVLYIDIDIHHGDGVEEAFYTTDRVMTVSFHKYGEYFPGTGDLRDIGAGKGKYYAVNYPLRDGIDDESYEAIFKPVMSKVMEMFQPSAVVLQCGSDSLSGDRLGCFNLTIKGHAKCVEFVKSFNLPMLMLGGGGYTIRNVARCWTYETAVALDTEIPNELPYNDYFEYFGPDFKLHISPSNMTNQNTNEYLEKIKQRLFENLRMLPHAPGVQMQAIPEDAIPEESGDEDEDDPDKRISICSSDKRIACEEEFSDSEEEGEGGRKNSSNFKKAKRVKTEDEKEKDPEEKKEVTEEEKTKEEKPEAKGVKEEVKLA
# Sequence of HDAC8 (Q9BY41 whole entry): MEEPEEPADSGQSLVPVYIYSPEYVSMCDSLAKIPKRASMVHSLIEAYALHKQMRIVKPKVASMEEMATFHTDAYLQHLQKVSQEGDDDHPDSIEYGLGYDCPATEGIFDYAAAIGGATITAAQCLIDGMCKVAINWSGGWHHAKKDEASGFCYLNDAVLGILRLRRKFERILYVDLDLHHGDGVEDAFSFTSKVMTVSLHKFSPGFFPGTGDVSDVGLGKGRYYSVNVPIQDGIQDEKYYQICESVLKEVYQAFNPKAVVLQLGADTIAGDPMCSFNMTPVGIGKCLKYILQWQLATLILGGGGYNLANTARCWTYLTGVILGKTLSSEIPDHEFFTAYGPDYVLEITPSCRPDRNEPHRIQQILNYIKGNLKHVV
Compound,IC50 [1],IC50 [2]
"FC(F)(F)c1nc(-c2ccc(CNC3CCN(c4ncccn4)C3)cc2)no1 (racemic) [Example 354, 1-(pyrimidin-2-yl)-N-({4-[5-(trifluoromethyl)-1,2,4-oxadiazol-3-yl]phenyl}methyl)pyrrolidin-3-amine]",680 nM,1600 nM
"FC(F)(F)c1nc(-c2ccc(CNC3CCc4ncccc4C3)nc2)no1 (racemic) [Example 371, N-({5-[5-(trifluoromethyl)-1,2,4-oxadiazol-3-yl]pyridin-2-yl}methyl)-5,6,7,8-tetrahydroquinolin-6-amine]",1600 nM,450 nM
"Cc1n[nH]c2c1CC(NCc1ccc(-c3noc(C(F)(F)F)n3)cn1)CC2 (racemic) [Example 372, 3-methyl-N-({5-[5-(trifluoromethyl)-1,2,4-oxadiazol-3-yl]pyridin-2-yl}methyl)-4,5,6,7-tetrahydro-1H-indazol-5-amine]",2900 nM,400 nM
"O=C1NCCc2ccccc2C1NCc1ccc(-c2noc(C(F)(F)F)n2)cn1 (racemic) [Example 373, 1-[({5-[5-(trifluoromethyl)-1,2,4-oxadiazol-3-yl]pyridin-2-yl}methyl)amino]-1,3,4,5-tetrahydro-2H-3-benzazepin-2-one]",2800 nM,1300 nM
"O=C1CCC(NCc2ccc(-c3noc(C(F)(F)F)n3)cn2)c2ccccc2N1 (racemic) [Example 374, 5-[({5-[5-(trifluoromethyl)-1,2,4-oxadiazol-3-yl]pyridin-2-yl}methyl)amino]-1,3,4,5-tetrahydro-2H-1-benzazepin-2-one]",6900 nM,3200 nM
"O=C1Nc2ccccc2CC1NCc1ccc(-c2noc(C(F)(F)F)n2)cn1 (racemic) [Example 375, 3-[({5-[5-(trifluoromethyl)-1,2,4-oxadiazol-3-yl]pyridin-2-yl}methyl)amino]-3,4-dihydroquinolin-2(1H)-one]",2600 nM,1000 nM
"O=C1NCCCCC1NCc1ccc(-c2noc(C(F)(F)F)n2)cn1 (racemic) [Example 377, 3-[({5-[5-(trifluoromethyl)-1,2,4-oxadiazol-3-yl]pyridin-2-yl}methyl)amino]azepan-2-one]",3300 nM,7300 nM
"O=C1CCC(NCc2ccc(-c3noc(C(F)(F)F)n3)cn2)c2ccccc2N1 (racemic) [Example 381, 5-[({5-[5-(trifluoromethyl)-1,2,4-oxadiazol-3-yl]pyridin-2-yl}methyl)amino]-1,3,4,5-tetrahydro-2H-1-benzazepin-2-one]",3900 nM,520 nM
"CC(C(=O)N(Cc1ccc(-c2noc(C(F)(F)F)n2)cn1)c1cccc(F)c1)n1cccn1 (racemic) [Example 389, N-(3-fluorophenyl)-2-(1H-pyrazol-1-yl)-N-({5-[5-(trifluoromethyl)-1,2,4-oxadiazol-3-yl]pyridin-2-yl}methyl)propanamide]",1600 nM,300 nM
"Cc1nccn1C(C)C(=O)N(Cc1ccc(-c2noc(C(F)(F)F)n2)cn1)c1cccc(F)c1 (racemic) [Example 390, N-(3-fluorophenyl)-2-(2-methyl-1H-imidazol-1-yl)-N-({5-[5-(trifluoromethyl)-1,2,4-oxadiazol-3-yl]pyridin-2-yl}methyl)propanamide]",1700 nM,430 nM
"O=C(CC1CCS(=O)(=O)C1)N(Cc1ccc(-c2noc(C(F)(F)F)n2)cn1)c1cccc(F)c1 (racemic) [Example 398, 2-(1,1-dioxidotetrahydrothiophen-3-yl)-N-(3-fluorophenyl)-N-({5-[5-(trifluoromethyl)-1,2,4-oxadiazol-3-yl]pyridin-2-yl}methyl)acetamide]",2300 nM,410 nM
"CN1CC(C(=O)N(Cc2ccc(-c3noc(C(F)(F)F)n3)cn2)c2cccc(F)c2)CCC1=O (racemic) [Example 402, N-(3-fluorophenyl)-1-methyl-6-oxo-N-({5-[5-(trifluoromethyl)-1,2,4-oxadiazol-3-yl]pyridin-2-yl}methyl)piperidine-3-carboxamide]",2600 nM,340 nM
"CN1CCC(C(=O)N(Cc2ccc(-c3noc(C(F)(F)F)n3)cn2)c2cccc(F)c2)C1 (racemic) [Example 403, N-(3-fluorophenyl)-1-methyl-N-({5-[5-(trifluoromethyl)-1,2,4-oxadiazol-3-yl]pyridin-2-yl}methyl)pyrrolidine-3-carboxamide]",2000 nM,250 nM
"O=C(C1CCCS(=O)(=O)C1)N(Cc1ccc(-c2noc(C(F)(F)F)n2)cn1)c1cccc(F)c1 (racemic) [Example 405, N-(3-fluorophenyl)-N-({5-[5-(trifluoromethyl)-1,2,4-oxadiazol-3-yl]pyridin-2-yl}methyl)tetrahydro-2H-thiopyran-3-carboxamide 1,1-dioxide]",1600 nM,220 nM
"O=C1N(CC2CCOCC2)CC(c2ccccc2)N1c1ccc(-c2noc(C(F)(F)F)n2)cc1 (racemic) [Example 422, 4-phenyl-1-(tetrahydro-2H-pyran-4-ylmethyl)-3-{4-[5-(trifluoromethyl)-1,2,4-oxadiazol-3-yl]phenyl}imidazolidin-2-one]",4000 nM,3400 nM
"FC(COc1cc(-c2noc(C(F)(F)F)n2)ccn1)CN1CCOCC1 (racemic) [Example 427, 4-[2-fluoro-3-({4-[5-(trifluoromethyl)-1,2,4-oxadiazol-3-yl]pyridin-2-yl}oxy)propyl]morpholine]",1000 nM,5100 nM

Compound,IC50 [1],IC50 [2]
"CC(C)N1CCC(NCc2ccc(-c3noc(C(F)(F)F)n3)cn2)C1=O (racemic) [Example 435, 1-(1-methylethyl)-3-[({5-[5-(trifluoromethyl)-1,2,4-oxadiazol-3-yl]pyridin-2-yl}methyl)amino]pyrrolidin-2-one]",4600 nM,4400 nM
"O=C1CC(NCc2ccc(-c3noc(C(F)(F)F)n3)cn2)CCN1 (racemic) [Example 437, 4-[({5-[5-(trifluoromethyl)-1,2,4-oxadiazol-3-yl]pyridin-2-yl}methyl)amino]piperidin-2-one]",5100 nM,5400 nM
"CN1CCOC(CNCc2ccc(-c3noc(C(F)(F)F)n3)cn2)C1 (racemic) [Example 452, 1-(4-methylmorpholin-2-yl)-N-({5-[5-(trifluoromethyl)-1,2,4-oxadiazol-3-yl]pyridin-2-yl}methyl)methanamine]",2400 nM,2800 nM
"O=C1CCC(c2ccccc2)N1c1ncc(-c2noc(C(F)(F)F)n2)cc1F (centres unmarked) [Example 5, 1-(3-Fluoro-5-(5-(trifluoromethyl)-1,2,4-oxadiazol-3-yl)pyridin-2-yl)-5-phenylpyrrolidin-2-one]",13000 nM,2300 nM
"O=C1CC[C@@H](c2nc3ccccc3[nH]2)N1c1ccc(-c2noc(C(F)(F)F)n2)cc1 [Example 21, (S)-5-(1H-Benzo[d]imidazol-2-yl)-1-(4-(5-(trifluoromethyl)-1,2,4-oxadiazol-3-yl)phenyl)pyrrolidin-2-one]",660 nM,110 nM
"O=C1CC[C@@H](c2nc3ccccc3o2)N1c1ccc(-c2noc(C(F)(F)F)n2)cc1F [Example 22, (S)-5-(Benzo[d]oxazol-2-yl)-1-(2-fluoro-4-(5-(trifluoromethyl)-1,2,4-oxadiazol-3-yl)phenyl)pyrrolidin-2-one]",350 nM,32 nM
"O=C1CCC[C@@H](c2nc3ccccc3s2)N1c1ccc(-c2noc(C(F)(F)F)n2)cc1 [Example 25, (S)-6-(Benzo[d]thiazol-2-yl)-1-(4-(5-(trifluoromethyl)-1,2,4-oxadiazol-3-1)phenyl)piperidin-2-one]",740 nM,220 nM
"FC(F)(F)c1nc(-c2ccc(N[C@@H]3CCCC[C@H]3c3ccccc3)nc2)no1 [Example 26, N-((1R,2S)-2-Phenylcyclohexyl)-5-(5-(trifluoromethyl)-1,2,4-oxadiazol-3-yl)pyridin-2-amine]",26000 nM,4600 nM
"FC(F)(F)c1nc(-c2ccc(CN(c3ccccn3)c3ccccn3)cc2)no1 [Example 27, N-(Pyridin-2-yl)-N-(4-(5-(trifluoromethyl)-1,2,4-oxadiazol-3-yl)benzyl)pyridin-2-amine]",4800 nM,3700 nM
"O=c1ccc2ccccc2n1Cc1ccc(-c2noc(C(F)(F)F)n2)cc1 [Example 28, 1-(4-(5-(Trifluoromethyl)-1,2,4-oxadiazol-3-yl)benzyl)quinolin-2(1H)-one]",1600 nM,760 nM
"Cc1nc2cc(F)ccc2n1Cc1ccc(-c2noc(C(F)(F)F)n2)cc1F [Example 29, 3-(3-Fluoro-4-((5-fluoro-2-methyl-1H-benzo[d]imidazol-1-yl)methyl)phenyl)-5-(trifluoromethyl)-1,2,4-oxadiazole]",8200 nM,1600 nM
"O=C(N1CCOCC1)N(Cc1ccc(-c2noc(C(F)(F)F)n2)cc1)c1cccc(C(F)(F)F)c1 [Example 32, N-(4-(5-(Trifluoromethyl)-1,2,4-oxadiazol-3-yl)benzyl)-N-(3-(trifluoromethyl)phenyl)morpholine-4-carboxamide]",2300 nM,440 nM
"CN1CCN(c2ccc(-c3noc(C(F)(F)F)n3)cc2)C(c2ccccc2)C1 (centres unmarked) [Example 33, 3-(4-(4-Methyl-2-phenylpiperazin-1-yl)phenyl)-5-(trifluoromethyl)-1,2,4-oxadiazole]",3900 nM,5300 nM
"O=C1COC[C@@H](c2nc(-c3ccccn3)no2)N1c1ccc(-c2noc(C(F)(F)F)n2)cc1 [Example 34, (S)-5-(3-(Pyridin-2-yl)-1,2,4-oxadiazol-5-yl)-4-(4-(5-(trifluoromethyl)-1,2,4-oxadiazol-3-yl)phenyl)morpholin-3-one]",280 nM,64 nM
"O=C1C(C2CCOCC2)NC[C@@H](c2cc(F)cc(F)c2)N1c1ccc(-c2noc(C(F)(F)F)n2)cn1 (stereo partly drawn) [Example 38, (6R)-6-(3,5-difluorophenyl)-3-(tetrahydro-2H-pyran-4-yl)-1-(5-(5-(trifluoromethyl)-1,2,4-oxadiazol-3-yl)pyridin-2-yl)piperazin-2-one]",16000 nM,4300 nM
